The record followed here is patent US12157730B2, “Heteroaryl derivative, method for producing same, and pharmaceutical composition comprising same as effective component” (VORONOI INC., priority 2019, dated 2024).

Structures are written as SMILES.

The target of the experiment is T1, Ba/F3 cell EGFR Exon20 ins NPH (Homo sapiens, UniProt P00533, INS773NPH).
T1 construct: expressed in transfected cells; host or cells: Ba/F3
As to the kind of experiment: Ba/F3 cell proliferation suppression, EGFR Exon20 ins NPH. It counts as cell-based. The note with it: GI50 class; Ba/F3 cell line with NPH inserted at Exon20 of EGFR; 72 hours. The gist of the method:
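Cells were seeded 24 h before dosing and then treated for 72 hours with compound at final concentrations of 0.3 nM to 50 um. Live cells were measured by CellTiter-Glo luminescence, and GI50 values were derived from growth ratio relative to control across three repeats.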
Turning to `C=CC(=O)Nc1cc(Nc2cc(N3OCC[C@H]3c3c(F)ccc(F)c3F)ncn2)c(OC)cc1N1CCC(N2CCN(C3CC3)CC2)CC1` [compound 937, N-(2-(4-(4-cyclopropylpiperazine-1-yl)piperidine-1-yl)-4-methoxy-5-((6-((S)-3-(2,3,6-trifluorophenyl)isoxazolidine-2-yl)pyrimidine-4-yl)amino)phenyl)acrylamide], the “Ba/F3 (NPH) Activity” value is listed as “B (50 nM ≤ GI50 < 500 nM)”. In the case of `C=CC(=O)Nc1cc(Nc2cc(N3OCC[C@@H]3c3cccc(F)c3Cl)ncn2)c(OC)cc1N1CCC(N2CC3CCC(C2)N3C2CC2)CC1` [Example 142, N-(5-((6-((R)-3-(2-chloro-3-fluorophenyl)isoxazolidine-2-yl)pyrimidine-4-yl)amino)-2-(4-(8-cyclopropyl-3,8-diazabicyclo[3.2.1]octan-3-yl)piperidine-1-yl)-4-methoxyphenyl) acrylamide], the “Ba/F3 (NPH) Activity” value is recorded as “A (GI50 < 50 nM)”.

With `C=CC(=O)Nc1cc(Nc2cc(N3OCC[C@@H]3c3ccc(F)cc3)ncn2)c(OC)cc1N1CCC(N2CC[C@H](N(C)C)C2)CC1` [compound 811, N-(2-(4-((S)-3-(dimethylamino)pyrolidine-1-yl)piperidine-1-yl)-5-((6-((R)-3-(4-fluorophenyl)isoxazolidine-2-yl)pyrimidine-4-yl)amino)-4-methoxyphenyl) acrylamide], the “Ba/F3 (NPH) Activity” value is on record as “A (GI50 < 50 nM)”. Take `C=CC(=O)Nc1cc(Nc2cc(N3OCC[C@@H]3c3cccc(C(F)(F)F)c3)ncn2)c(OC)cc1N1CC[C@@H](N(C)C)C1` [compound 505, N-(2-((R)-3-(dimethylamino)pyrolidine-1-yl)-4-methoxy-5-((6-((R)-3-(3-(trifluoromethyl)phenyl)isoxazolidine-2-yl)pyrimidine-4-yl)amino)phenyl)acrylamide]: the “Ba/F3 (NPH) Activity” value was “A (GI50 < 50 nM)”.

For `C=CC(=O)Nc1cc(Nc2cc(N3OCC[C@@H]3c3cccc(Cl)c3)ncn2)c(OC)cc1N1CC[C@H](N(C)C)C1` [compound 468, N-(5-((6-((R)-3-(3-chlorophenyl)isoxazolidine-2-yl)pyrimidine-4-yl)amino)-2-((S)-3-(dimethylamino)pyrolidine-1-yl)-4-methoxyphenyl) acrylamide], the “Ba/F3 (NPH) Activity” value is given as “A (GI50 < 50 nM)”. As to `C=CC(=O)Nc1cc(Nc2cc(N3OCC[C@@H]3Cc3cc(F)cc(F)c3)ncn2)c(OC)cc1N1CCN(C2CC2)CC1` [compound 1032, N-(2-(4-cyclopropylpiperazine-1-yl)-5-((6-(S)-(3-(3,5-difluorobenzyl)isoxazolidine-2-yl)pyrimidine-4-yl)amino)-4-methoxyphenyl) acrylamide], the “Ba/F3 (NPH) Activity” value is “B (50 nM ≤ GI50 < 500 nM)”. Consider `C=CC(=O)Nc1cc(Nc2cc(N3OCC[C@@H]3c3cc(F)cc(Cl)c3)ncn2)c(OC)cc1N1CCC(N2CCN(C(C)C)CC2)CC1` [compound 593, N-(5-((6-((R)-3-(3-chloro-5-fluorophenyl)isoxazolidine-2-yl)pyrimidine-4-yl)amino)-2-(4-(4-isopropylpiperazine-1-yl)piperidine-1-yl)-4-methoxyphenyl) acrylamide], for which the “Ba/F3 (NPH) Activity” value is “A (GI50 < 50 nM)”.

For `C=CC(=O)Nc1cc(Nc2cc(N3OCC[C@@H]3c3ccc(F)cc3)ncn2)c(OC)cc1N1CCC(N2CCN(C3CCC3)CC2)CC1` [Example 76, N-(2-(4-(4-cyclobutylpiperazine-1-yl)piperidine-1-yl)-5-((6-((R)-3-(4-fluorophenyl)isoxazolidine-2-yl)pyrimidine-4-yl)amino)-4-methoxyphenyl) acrylamide], the “Ba/F3 (NPH) Activity” value is “A (GI50 < 50 nM)”. Take `C=CC(=O)Nc1cc(Nc2cc(N3OCC[C@@H]3c3cc(F)ccc3F)ncn2)c(OC)cc1N1CCC(N2CCN(CC)CC2)CC1` [compound 767, N-(5-((6-((R)-3-(2,5-difluorophenyl)isoxazolidine-2-yl)pyrimidine-4-yl)amino)-2-(4-(4-ethylpiperazine-1-yl)piperidine-1-yl)-4-methoxyphenyl) acrylamide]: the “Ba/F3 (NPH) Activity” value is reported as “A (GI50 < 50 nM)”. For the compound `C=CC(=O)Nc1cc(Nc2cc(N3OCC[C@@H]3c3ccc(Cl)c(Cl)c3)ncn2)c(OC)cc1N1CCN(C2CC2)CC1` [compound 673, N-(2-(4-cyclopropylpiperazine-1-yl)-5-((6-((R)-3-(3,4-dichlorophenyl)isoxazolidine-2-yl)pyrimidine-4-yl)amino)-4-methoxyphenyl) acrylamide], the “Ba/F3 (NPH) Activity” value is listed as “A (GI50 < 50 nM)”. With `C=CC(=O)Nc1cc(Nc2cc(N3OCC[C@@H]3c3c(F)ccc(F)c3F)ncn2)c(OC)cc1N1CCC(N2CCN(C3CC3)CC2)CC1` [Example 169, N-(2-(4-(4-cyclopropylpiperazine-1-yl)piperidine-1-yl)-4-methoxy-5-((6-((R)-3-(2,3,6-trifluorophenyl)isoxazolidine-yl)pyrimidine-4-yl)amino)phenyl)acrylamide], the “Ba/F3 (NPH) Activity” value was “A (GI50 < 50 nM)”. Under `C=CC(=O)Nc1cc(Nc2cc(N3OCC[C@@H]3c3ccc(Cl)c(F)c3)ncn2)c(OC)cc1N1CCC(N2CCN(C(C)C)CC2)CC1` [compound 708, N-(5-((6-((R)-3-(4-chloro-3-fluorophenyl)isoxazolidine-2-yl)pyrimidine-4-yl)amino)-2-(4-(4-isopropylpiperazine-1-yl)piperidine-1-yl)-4-methoxyphenyl) acrylamide] stands “A (GI50 < 50 nM)”; under `C=CC(=O)Nc1cc(Nc2cc(N3OCC[C@@H]3c3cccc(Cl)c3Cl)ncn2)c(OC)cc1N1C[C@H]2C[C@@H]1CO2` [compound 523, N-(2-((1R,4R)-2-oxa-5-azabicyclo[2.2.1]heptane-5-yl)-5-((6-((R)-3-(2,3-dichlorophenyl)isoxazolidine-2-yl)pyrimidine-4-yl)amino)-4-methoxyphenyl) acrylamide], “A (GI50 < 50 nM)”; under `C=CC(=O)Nc1cc(Nc2cc(N3OCC[C@@H]3c3cccc(C)c3F)ncn2)c(OC)cc1N1CCOCC1` [compound 844, N-(5-((6-((R)-3-(2-fluoro-3-methylphenyl)isoxazolidine-2-yl)pyrimidine-4-yl)amino)-4-methoxy-2-morpholinophenyl) acrylamide], “A (GI50 < 50 nM)”. The result for `C=CC(=O)Nc1cc(Nc2cc(N3OCC[C@H]3c3c(F)cccc3F)ncn2)c(OC)cc1N1CCC(N2CCN(C)CC2)CC1` [compound 896, N-(5-((6-((S)-3-(2,6-difluorophenyl)isoxazolidine-2-yl)pyrimidine-4-yl)amino)-4-methoxy-2-(4-(4-methylpiperazine-1-yl)piperidine-1-yl)phenyl)acrylamide] reads “C (500 nM ≤ GI50 < 5000 nM)”; that for `C=CC(=O)Nc1cc(Nc2cc(N3OCC[C@@H]3c3cccc(Cl)c3Cl)ncn2)c(OC)cc1N1CCC(N2CCN(C(C)=O)CC2)CC1` [compound 608, N-(2-(4-(4-acetylpiperazine-1-yl)piperidine-1-yl)-5-((6-((R)-3-(2,3-dichlorophenyl)isoxazolidine-2-yl)pyrimidine-4-yl)amino)-4-methoxyphenyl) acrylamide], “A (GI50 < 50 nM)”. The result for `C=CC(=O)Nc1cc(Nc2cc(N3OCC[C@@H]3c3cccc(F)c3Cl)ncn2)c(OC)cc1N1CCC(N2CCOCC2)CC1` [compound 598, N-(5-((6-((R)-3-(2-chloro-3-fluorophenyl)isoxazolidine-2-yl)pyrimidine-4-yl)amino)-4-methoxy-2-(4-morpholinopiperidine-1-yl)phenyl)acrylamide] reads “A (GI50 < 50 nM)”; that for `C=CC(=O)Nc1cc(Nc2cc(N3OCC[C@@H]3c3cccc(C)c3F)ncn2)c(OC)cc1N1CC[C@@H](N(C)C)C1` [compound 860, N-(2-((R)-3-(dimethylamino)pyrolidine-1-yl)-5-((6-((R)-3-(2-fluoro-3-methylphenyl)isoxazolidine-2-yl)pyrimidine-4-yl)amino)-4-methoxyphenyl) acrylamide], “A (GI50 < 50 nM)”. On to `C=CC(=O)Nc1cc(Nc2cc(N3OCC[C@@H]3c3cc(F)cc(F)c3)ncn2)c(OC)cc1N1CCC(N2CCCN(C3CC3)CC2)CC1` [compound 717, N-(2-(4-(4-cyclopropyl-1,4-diazepane-1-yl)piperidine-1-yl)-5-((6-((R)-3-(3,5-difluorophenyl)isoxazolidine-2-yl)pyrimidine-4-yl)amino)-4-methoxyphenyl) acrylamide], for which the “Ba/F3 (NPH) Activity” value is reported as “A (GI50 < 50 nM)”. The result for `C=CC(=O)Nc1cc(Nc2cc(N3OCC[C@@H]3c3cc(F)cc(F)c3)ncn2)c(OC)cc1N1CCC(N2C[C@@H]3C[C@H]2CN3CC)CC1` [Example 264, N-(5-((6-((R)-3-(3,5-difluorophenyl)isoxazolidine-2-yl)pyrimidine-4-yl)amino)-2-(4-((1S,4S)-5-ethyl-2,5-diazabicyclo[2.2.1]heptane-2-yl)piperidine-1-yl)-4-methoxyphenyl) acrylamide] reads “A (GI50 < 50 nM)”; that for `C=CC(=O)Nc1cc(Nc2cc(N3OCC[C@@H]3Cc3cccc(Cl)c3C)ncn2)c(OC)cc1N1CCC(N2C[C@H]3C[C@@H]2CO3)CC1` [compound 1030, N-(2-(4-((1R,4R)-2-oxa-5-azabicyclo [2.2.1]heptane-5-yl)piperidine-1-yl)-5-((6-((S)-3-(3-chloro-2-methylbenzyl)isoxazolidine-2-yl)pyrimidine-4-yl)amino)-4-methoxyphenyl) acrylamide], “A (GI50 < 50 nM)”; that for `C=CC(=O)Nc1cc(Nc2cc(N3OCC[C@@H]3c3ccc(Cl)cc3F)ncn2)c(OC)cc1N1CC[C@H](N2CCOCC2)C1` [compound 407, N-(5-((6-((R)-3-(4-chloro-2-fluorophenyl)isoxazolidine-2-yl)pyrimidine-4-yl)amino)-4-methoxy-2-((S)-3-morpholinopyrolidine-1-yl)phenyl)acrylamide], “B (50 nM ≤ GI50 < 500 nM)”.
